In ChEMBL document CHEMBL4373740, “Synthesis and biological evaluation of new MET inhibitors with 1,6-naphthyridinone scaffold” (Eur J Med Chem, 2020):

How the values were obtained:
[1] = target: Tyrosine-protein kinase Mer (Homo sapiens, UniProt Q12866); test: Inhibition of recombinant human GST-tagged cMER (578 to 872 residues) expressed in baculovirus infected Sf21 insect cells using biotin as substrate preincubated for 5 mins followed by substrate addition and measured after 30 to 60 mins in presence of ATP by HTRF assay
Sequence of Tyrosine-protein kinase Mer (Q12866 whole entry, the tested form may be a part): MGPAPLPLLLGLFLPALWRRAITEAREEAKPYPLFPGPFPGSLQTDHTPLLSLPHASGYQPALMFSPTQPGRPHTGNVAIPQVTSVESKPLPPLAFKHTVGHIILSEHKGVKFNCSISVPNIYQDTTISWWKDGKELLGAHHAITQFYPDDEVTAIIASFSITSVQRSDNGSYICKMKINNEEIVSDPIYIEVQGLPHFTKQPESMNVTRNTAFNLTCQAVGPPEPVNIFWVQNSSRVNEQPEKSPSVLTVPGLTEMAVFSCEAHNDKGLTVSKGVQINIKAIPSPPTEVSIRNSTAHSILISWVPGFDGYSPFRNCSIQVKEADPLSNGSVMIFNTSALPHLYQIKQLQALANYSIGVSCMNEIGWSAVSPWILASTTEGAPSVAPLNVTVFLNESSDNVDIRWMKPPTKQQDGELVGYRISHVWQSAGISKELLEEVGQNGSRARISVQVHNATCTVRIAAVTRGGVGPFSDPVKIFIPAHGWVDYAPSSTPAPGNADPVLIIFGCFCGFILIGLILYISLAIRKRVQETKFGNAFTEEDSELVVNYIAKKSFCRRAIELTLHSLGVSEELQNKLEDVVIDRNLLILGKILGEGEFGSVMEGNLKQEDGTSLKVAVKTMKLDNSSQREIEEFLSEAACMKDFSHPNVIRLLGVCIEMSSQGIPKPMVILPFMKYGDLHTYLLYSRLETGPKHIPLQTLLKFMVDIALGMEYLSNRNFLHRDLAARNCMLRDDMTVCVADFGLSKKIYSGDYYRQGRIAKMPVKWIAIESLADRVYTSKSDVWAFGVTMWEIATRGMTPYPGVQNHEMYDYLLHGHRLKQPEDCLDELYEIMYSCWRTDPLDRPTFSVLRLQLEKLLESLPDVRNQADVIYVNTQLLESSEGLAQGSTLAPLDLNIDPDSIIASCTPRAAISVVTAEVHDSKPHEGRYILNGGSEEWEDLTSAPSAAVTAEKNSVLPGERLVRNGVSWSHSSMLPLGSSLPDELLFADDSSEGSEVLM

[2] = target: Mitogen-activated protein kinase 3 (Homo sapiens) (UniProt P27361); test: Inhibition of recombinant full length human GST-tagged MAPK3 expressed in Escherichia coli at 1 uM using biotin as substrate preincubated for 5 mins followed by substrate addition and measured after 30 to 60 mins in presence of ATP by HTRF assay relative to control
[3] = target: Glycogen synthase kinase-3 beta (Homo sapiens) (UniProt P49841); test: Inhibition of GSK3beta (unknown origin) at 1 uM using biotin as substrate preincubated for 5 mins followed by substrate addition and measured after 30 to 60 mins in presence of ATP by HTRF assay relative to control
[4] = Volume of distribution in Sprague-Dawley rat at 1.0 mg/kg, iv measured for 5 min to 72 hrs by LC-MS/MS analysis; assay type: ADME, organism-based; conditions: in vivo
[5] = target: Dual specificity tyrosine-phosphorylation-regulated kinase 3 (Homo sapiens) (UniProt O43781); test: Inhibition of recombinant human GST-tagged DYRK3 expressed in baculovirus system at 1 uM using biotin as substrate preincubated for 5 mins followed by substrate addition and measured after 30 to 60 mins in presence of ATP by HTRF assay relative to control
[6] = target: Tyrosine-protein kinase ABL1 (Homo sapiens) (UniProt P00519); test: (§1) Inhibition of recombinant full length human His-tagged ABL1 expressed in baculovirus expression system at 1 uM using biotin as substrate preincubated for 5 mins followed by substrate addition and measured after 30 to 60 mins in presence of ATP by HTRF assay relative to control
[7] = target: Insulin-like growth factor 1 receptor (Homo sapiens) (UniProt P08069); test: Inhibition of recombinant full length human His-tagged IGF1R expressed in baculovirus expression system at 1 uM using biotin as substrate preincubated for 5 mins followed by substrate addition and measured after 30 to 60 mins in presence of ATP by HTRF assay relative to control
[8] = target: Proto-oncogene tyrosine-protein kinase receptor Ret (Homo sapiens) (UniProt P07949); test: Inhibition of recombinant human GST/His6-tagged RET (658 to 1114 residues) expressed in baculovirus infected Sf9 insect cells at 1 uM using biotin as substrate preincubated for 5 mins followed by substrate addition and measured after 30 to 60 mins in presence of ATP by HTRF assay relative to control
[9] = target: Dual specificity tyrosine-phosphorylation-regulated kinase 4 (Homo sapiens) (UniProt Q9NR20); test: Inhibition of recombinant human GST-tagged DYRK4 expressed in baculovirus system at 1 uM using biotin as substrate preincubated for 5 mins followed by substrate addition and measured after 30 to 60 mins in presence of ATP by HTRF assay relative to control
[10] = target: Serine/threonine-protein kinase B-raf (Homo sapiens) (UniProt P15056); test: Inhibition of recombinant full length human GST-tagged BRAF expressed in baculovirus expression system at 1 uM using biotin as substrate preincubated for 5 mins followed by substrate addition and measured after 30 to 60 mins in presence of ATP by HTRF assay relative to control
[11] = target: Epidermal growth factor receptor (Homo sapiens) (UniProt P00533); test: Inhibition of recombinant human GST-tagged EGFR (668 to 1210 residues) expressed in baculovirus expression system at 1 uM using biotin as substrate preincubated for 5 mins followed by substrate addition and measured after 30 to 60 mins in presence of ATP by HTRF assay relative to control
Sequence of Epidermal growth factor receptor (Homo sapiens) (P00533 whole entry, the tested form may be a part): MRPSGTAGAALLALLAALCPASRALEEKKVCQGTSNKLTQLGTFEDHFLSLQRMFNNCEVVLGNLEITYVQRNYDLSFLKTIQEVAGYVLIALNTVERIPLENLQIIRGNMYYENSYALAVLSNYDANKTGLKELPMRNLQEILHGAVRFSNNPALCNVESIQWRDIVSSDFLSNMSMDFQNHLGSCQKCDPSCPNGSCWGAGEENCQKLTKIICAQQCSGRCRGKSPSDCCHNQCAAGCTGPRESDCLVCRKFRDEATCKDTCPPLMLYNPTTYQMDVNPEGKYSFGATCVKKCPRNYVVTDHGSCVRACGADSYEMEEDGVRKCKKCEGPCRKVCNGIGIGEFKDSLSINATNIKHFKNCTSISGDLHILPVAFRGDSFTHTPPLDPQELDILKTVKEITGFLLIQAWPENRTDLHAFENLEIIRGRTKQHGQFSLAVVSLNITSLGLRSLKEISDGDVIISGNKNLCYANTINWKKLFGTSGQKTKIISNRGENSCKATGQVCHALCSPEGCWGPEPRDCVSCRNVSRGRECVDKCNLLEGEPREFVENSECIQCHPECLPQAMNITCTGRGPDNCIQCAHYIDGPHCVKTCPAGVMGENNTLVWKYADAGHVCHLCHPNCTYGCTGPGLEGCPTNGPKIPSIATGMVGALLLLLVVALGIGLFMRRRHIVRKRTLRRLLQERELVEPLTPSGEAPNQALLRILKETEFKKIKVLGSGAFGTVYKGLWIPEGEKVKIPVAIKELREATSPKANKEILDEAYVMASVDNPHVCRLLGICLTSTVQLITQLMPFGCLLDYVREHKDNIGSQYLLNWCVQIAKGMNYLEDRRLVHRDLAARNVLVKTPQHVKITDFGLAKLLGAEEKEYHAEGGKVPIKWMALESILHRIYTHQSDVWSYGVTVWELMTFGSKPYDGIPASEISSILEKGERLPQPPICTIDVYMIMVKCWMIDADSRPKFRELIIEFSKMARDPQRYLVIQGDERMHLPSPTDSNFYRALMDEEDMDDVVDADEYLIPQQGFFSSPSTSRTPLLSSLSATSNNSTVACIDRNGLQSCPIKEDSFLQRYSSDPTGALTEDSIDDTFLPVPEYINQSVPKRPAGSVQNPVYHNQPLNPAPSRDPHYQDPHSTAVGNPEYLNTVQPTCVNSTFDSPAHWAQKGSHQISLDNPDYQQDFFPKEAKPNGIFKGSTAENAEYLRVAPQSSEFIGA

Angiopoietin-1 receptor = Angiopoietin-1 receptor (Homo sapiens, UniProt Q02763); test: Inhibition of recombinant human GST-tagged TEK (817 to 1101 residues) expressed in baculovirus expression system at 1 uM using biotin as substrate preincubated for 5 mins followed by substrate addition and measured after 30 to 60 mins in presence of ATP by HTRF assay relative to control
[12] = target: ALK tyrosine kinase receptor (Homo sapiens) (UniProt Q9UM73); test: Inhibition of human GST-tagged ALK cytoplasmic domain (1060 to end residues) expressed in sf9 cells at 1 uM using biotin as substrate preincubated for 5 mins followed by substrate addition and measured after 30 to 60 mins in presence of ATP by HTRF assay relative to control
[13] = target: Serine/threonine-protein kinase PLK1 (Homo sapiens) (UniProt P53350); test: Inhibition of recombinant full length human His-tagged PLK1 expressed in baculovirus expression system at 1 uM using biotin as substrate preincubated for 5 mins followed by substrate addition and measured after 30 to 60 mins in presence of ATP by HTRF assay relative to control
[14] = target: BDNF/NT-3 growth factors receptor (Homo sapiens, UniProt Q16620); test: as §1, with “recombinant” for “recombinant full length”, “TRKB catalytic domain (526 to 838 residues)” for “ABL1”
[15] = target: Ephrin type-B receptor 4 (Homo sapiens) (UniProt P54760); test: Inhibition of recombinant full length human His-tagged EPHB4 expressed in baculovirus expression system at 1 uM using biotin as substrate preincubated for 5 mins followed by substrate addition and measured after 30 to 60 mins in presence of ATP by HTRF assay relative to control
Sequence of Ephrin type-B receptor 4 (Homo sapiens) (P54760 whole entry, the tested form may be a part): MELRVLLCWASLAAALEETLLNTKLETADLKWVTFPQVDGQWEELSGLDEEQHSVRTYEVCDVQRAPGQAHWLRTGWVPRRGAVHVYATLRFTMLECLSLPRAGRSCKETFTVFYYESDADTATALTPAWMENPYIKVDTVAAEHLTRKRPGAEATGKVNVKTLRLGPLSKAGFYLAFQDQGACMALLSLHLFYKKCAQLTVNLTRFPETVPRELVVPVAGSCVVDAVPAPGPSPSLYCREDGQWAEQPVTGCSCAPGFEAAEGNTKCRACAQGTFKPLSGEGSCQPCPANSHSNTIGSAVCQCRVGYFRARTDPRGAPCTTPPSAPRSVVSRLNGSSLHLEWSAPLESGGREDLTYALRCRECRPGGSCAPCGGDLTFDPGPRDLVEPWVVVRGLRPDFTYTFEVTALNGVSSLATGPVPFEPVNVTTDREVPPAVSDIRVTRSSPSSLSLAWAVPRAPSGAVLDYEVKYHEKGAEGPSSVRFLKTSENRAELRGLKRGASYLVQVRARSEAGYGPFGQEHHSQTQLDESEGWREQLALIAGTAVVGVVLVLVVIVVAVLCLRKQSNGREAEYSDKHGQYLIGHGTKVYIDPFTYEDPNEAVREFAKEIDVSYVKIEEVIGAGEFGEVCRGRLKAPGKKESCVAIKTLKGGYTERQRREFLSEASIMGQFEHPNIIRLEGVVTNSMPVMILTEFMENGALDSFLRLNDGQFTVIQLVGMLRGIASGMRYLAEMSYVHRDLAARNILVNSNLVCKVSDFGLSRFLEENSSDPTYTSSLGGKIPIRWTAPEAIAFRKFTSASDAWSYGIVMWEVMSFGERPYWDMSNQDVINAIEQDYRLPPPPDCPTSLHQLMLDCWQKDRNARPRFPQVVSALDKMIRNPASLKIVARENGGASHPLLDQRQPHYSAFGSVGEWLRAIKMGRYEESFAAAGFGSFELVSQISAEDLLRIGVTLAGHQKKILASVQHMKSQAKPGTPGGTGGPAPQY

[16] = target: Tyrosine-protein kinase Mer (Homo sapiens) (UniProt Q12866); test: (§2) Inhibition of recombinant human GST-tagged cMER (578 to 872 residues) expressed in baculovirus infected Sf21 insect cells at 1 uM using biotin as substrate preincubated for 5 mins followed by substrate addition and measured after 30 to 60 mins in presence of ATP by HTRF assay relative to control
Sequence of Tyrosine-protein kinase Mer (Homo sapiens) (Q12866 whole entry, the tested form may be a part): as the sequence (Q12866 whole entry, the tested form may be a part) above

[17] = Volume of distribution in Sprague-Dawley rat at 5.0 mg/kg, ig measured for 15 min to 72 hrs by LC-MS/MS analysis; assay type: ADME, organism-based; conditions: in vivo, po
[18] = target: Cyclin-dependent kinase 5/CDK5 activator 1 (Homo sapiens) (UniProt Q00535+Q15078); test: Inhibition of recombinant full length human GST/His-tagged CDK5/p25 expressed in baculovirus expression system at 1 uM using biotin as substrate preincubated for 5 mins followed by substrate addition and measured after 30 to 60 mins in presence of ATP by HTRF assay relative to control
[19] = AUC (0 to infinity) in Sprague-Dawley rat at 1.0 mg/kg, iv measured for 5 min to 72 hrs by LC-MS/MS analysis; assay type: ADME, organism-based; design: dose 1 mg/kg, time infinity, route intravenous; conditions: in vivo
[20] = target: Fibroblast growth factor receptor 1 (Homo sapiens) (UniProt P11362); test: as §2, with “N-terminal His-tagged FGFR1 catalytic domain (399” for “GST-tagged cMER (578”, “822” for “872”
Sequence of Fibroblast growth factor receptor 1 (Homo sapiens) (P11362 22-822 limits assumed): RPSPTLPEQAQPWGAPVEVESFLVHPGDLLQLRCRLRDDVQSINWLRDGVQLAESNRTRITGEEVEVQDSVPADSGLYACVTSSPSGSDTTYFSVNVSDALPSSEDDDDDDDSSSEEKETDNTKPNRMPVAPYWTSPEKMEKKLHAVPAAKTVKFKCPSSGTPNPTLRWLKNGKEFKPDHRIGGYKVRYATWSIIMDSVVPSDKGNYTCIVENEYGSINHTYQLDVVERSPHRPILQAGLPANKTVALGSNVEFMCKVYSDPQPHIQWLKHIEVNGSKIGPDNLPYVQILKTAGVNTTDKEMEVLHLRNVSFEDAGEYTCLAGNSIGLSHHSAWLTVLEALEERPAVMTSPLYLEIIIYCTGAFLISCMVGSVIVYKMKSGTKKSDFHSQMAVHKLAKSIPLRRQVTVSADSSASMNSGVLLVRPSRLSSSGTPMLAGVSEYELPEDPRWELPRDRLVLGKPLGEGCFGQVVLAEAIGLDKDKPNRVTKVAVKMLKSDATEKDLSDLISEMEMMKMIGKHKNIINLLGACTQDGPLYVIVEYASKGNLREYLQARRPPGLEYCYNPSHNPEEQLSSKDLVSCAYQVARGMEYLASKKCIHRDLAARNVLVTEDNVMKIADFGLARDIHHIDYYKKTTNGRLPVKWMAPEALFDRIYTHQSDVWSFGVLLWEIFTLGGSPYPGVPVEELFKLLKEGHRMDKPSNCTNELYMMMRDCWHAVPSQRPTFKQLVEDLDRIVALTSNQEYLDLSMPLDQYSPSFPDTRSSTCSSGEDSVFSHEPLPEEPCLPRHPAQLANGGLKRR

[21] = target: Mitogen-activated protein kinase kinase kinase 20 (Homo sapiens) (UniProt Q9NYL2); test: Inhibition of recombinant full length human GST-tagged ZAK expressed in baculovirus expression system at 1 uM using biotin as substrate preincubated for 5 mins followed by substrate addition and measured after 30 to 60 mins in presence of ATP by HTRF assay relative to control
Sequence of Mitogen-activated protein kinase kinase kinase 20 (Homo sapiens) (Q9NYL2 2-800 limits assumed): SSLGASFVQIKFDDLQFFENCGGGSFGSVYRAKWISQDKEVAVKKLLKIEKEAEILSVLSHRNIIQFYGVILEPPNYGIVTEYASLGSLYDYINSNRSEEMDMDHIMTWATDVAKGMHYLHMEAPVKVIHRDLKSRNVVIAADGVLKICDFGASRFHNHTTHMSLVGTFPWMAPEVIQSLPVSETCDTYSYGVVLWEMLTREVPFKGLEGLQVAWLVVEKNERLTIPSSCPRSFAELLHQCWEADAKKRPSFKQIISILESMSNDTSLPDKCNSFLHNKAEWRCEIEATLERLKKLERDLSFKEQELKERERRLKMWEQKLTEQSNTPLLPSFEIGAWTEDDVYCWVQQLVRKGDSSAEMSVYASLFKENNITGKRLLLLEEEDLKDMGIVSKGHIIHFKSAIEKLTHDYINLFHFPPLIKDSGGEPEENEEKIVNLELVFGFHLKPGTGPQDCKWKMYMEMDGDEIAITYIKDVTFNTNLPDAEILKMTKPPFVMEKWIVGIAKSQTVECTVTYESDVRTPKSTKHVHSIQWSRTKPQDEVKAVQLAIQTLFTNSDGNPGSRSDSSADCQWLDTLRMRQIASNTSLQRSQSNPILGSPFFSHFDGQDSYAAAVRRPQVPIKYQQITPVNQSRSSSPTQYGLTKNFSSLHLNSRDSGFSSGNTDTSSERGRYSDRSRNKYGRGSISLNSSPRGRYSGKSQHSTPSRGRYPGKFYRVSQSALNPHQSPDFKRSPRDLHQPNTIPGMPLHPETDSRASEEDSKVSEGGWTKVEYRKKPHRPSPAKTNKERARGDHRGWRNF

- IC50 [1]: 4.2 nM
- inhibition [2]: < 50%
- inhibition [3]: < 50%
- Vd [4]: 0.4 L/kg
- inhibition [5]: < 50%
- inhibition [6]: < 50%
- inhibition [7]: < 50%
- inhibition [8]: < 50%
- inhibition [9]: < 50%
- inhibition [10]: < 50%
- inhibition [11]: < 50%
- inhibition (Angiopoietin-1 receptor): 50 to 79%
- inhibition [12]: < 50%
- inhibition [13]: < 50%
- inhibition [14]: > 80%
- inhibition [15]: 50 to 79%
- inhibition [16]: > 80%
- Vd [17]: 0.6 L/kg
- inhibition [18]: < 50%
- AUC(0-inf) [19]: 80600 ng·h/mL
- inhibition [20]: < 50%
- inhibition [21]: < 50%
SMILES: Cn1cc(-c2ccc(F)cc2)c(=O)c2c(Nc3ccc(Oc4ccnc(NC(=O)C5CC5)c4)c(F)c3)nccc21
